Experimental data as given in PubChem BioAssay (NCI).
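All cell lines were grown in 96-well plates and treated with compound for 48 hours. Abbreviation: GI50, concentration required for 50% inhibition of growth. The concentration for full growth arrest is given as TGI.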

Experiments:
Assay in all cases: NCI-60 cell line screen, 48 h
[1] = test system: A498 renal
[2] = test system: COLO 205 colon
[3] = test system: HL-60(TB) leukemia
[4] = test system: LOX IMVI melanoma
[5] = test system: MDA-MB-231 breast
[6] = test system: MDA-MB-435
[7] = test system: MDA-N
[8] = test system: RPMI-8226 leukemia
[9] = test system: SK-MEL-5 melanoma
[10] = test system: SNB-19 CNS
[11] = test system: U251 CNS
[12] = test system: UO-31 renal
[13] = test system: NCI-H226 lung
[14] = test system: NCI-H522 lung
[15] = test system: SN12C renal

## COc1cc(-c2c[nH]c3ccccc23)nc(-c2c[nH]c3ccccc23)n1
[1]
  TGI: 6.58 µM
[2]
  TGI: 20.8 µM
[3]
  TGI: 12.9 µM
[4]
  TGI: 16.5 µM
[5]
  TGI: 8 µM
[6]
  TGI: 18.6 µM
[7]
  TGI: 14.2 µM
[8]
  TGI: 10.6 µM
[9]
  TGI: 17.9 µM
[10]
  TGI: 21 µM
[11]
  TGI: 14.9 µM
[12]
  TGI: 18.1 µM

## CCOC(=O)/C(C#N)=C(/NS(=O)(=O)c1cc(C)c(Cl)cc1[S-])[n+]1ccc(N(C)C)cc1
[1]
  TGI: > 100 µM
[2]
  TGI: > 100 µM
[3]
  TGI: > 100 µM
[5]
  TGI: > 100 µM
[6]
  TGI: > 100 µM
[13]
  TGI: > 100 µM
[14]
  TGI: > 100 µM
[8]
  TGI: > 100 µM
[9]
  TGI: > 100 µM
[15]
  TGI: > 100 µM
[10]
  TGI: > 100 µM
[11]
  TGI: > 100 µM
[12]
  TGI: > 100 µM

## COc1ccc(C2Oc3c(cccc3OC)C=C2[N+](=O)[O-])cc1OC (stereo unspecified)
[2]
  TGI: 73.7 µM
[3]
  TGI: > 100 µM
[4]
  TGI: 20.5 µM
[5]
  TGI: > 100 µM
[6]
  TGI: 8.3 µM
[7]
  TGI: > 100 µM
[13]
  TGI: 78.2 µM
[14]
  TGI: 12.8 µM
[8]
  TGI: > 100 µM
[9]
  TGI: 16.1 µM
[10]
  TGI: > 100 µM
[11]
  TGI: 15.2 µM
[12]
  TGI: 29.2 µM

## O=C1CN(c2cccc(C(F)(F)F)c2)C(=O)CN1NCNN1CC(=O)N(c2cccc(C(F)(F)F)c2)CC1=O
[2]
  TGI: > 100 µM
[3]
  TGI: > 100 µM
[5]
  TGI: > 100 µM
[6]
  TGI: > 100 µM
[7]
  TGI: > 100 µM
[14]
  TGI: > 100 µM
[8]
  TGI: > 100 µM
[9]
  TGI: > 100 µM
[15]
  TGI: > 100 µM
[10]
  TGI: > 100 µM
[11]
  TGI: > 100 µM
[12]
  TGI: > 100 µM

## CC(=O)O[C@H]1CC[C@H]2[C@@H]3CCc4cc(O)c(I)cc4[C@H]3CC[C@]12C
[2]
  TGI: 33.6 µM
[3]
  TGI: 80.9 µM
[4]
  TGI: 30.2 µM
[5]
  TGI: 12.3 µM
[6]
  GI50: 13.1 µM
  TGI: 26.6 µM
[7]
  TGI: 31.3 µM
[13]
  TGI: 30.7 µM
[14]
  TGI: 25.2 µM
[8]
  TGI: 41.9 µM
[9]
  TGI: 17.2 µM
[15]
  GI50: 18 µM
  TGI: 37.2 µM
[10]
  TGI: 32.3 µM
[11]
  TGI: 27.8 µM
[12]
  TGI: 27.1 µM

## CC(=O)OCC1OC(n2c(C)c(N=Nc3ccc(C)cc3)c(C)c(C#N)c2=S)C(OC(C)=O)C(OC(C)=O)C1OC(C)=O (stereo unspecified)
[2]
  TGI: > 100 µM
[3]
  TGI: > 100 µM
[4]
  TGI: > 100 µM
[5]
  TGI: > 100 µM
[6]
  TGI: > 100 µM
[7]
  TGI: > 100 µM
[8]
  TGI: > 100 µM
[9]
  TGI: > 100 µM
[15]
  TGI: > 100 µM
[10]
  TGI: > 100 µM
[11]
  TGI: > 100 µM
[12]
  TGI: > 100 µM

## Cc1ccc(S(=O)(=O)Nn2c(-c3ccccc3)c(C#N)c(-c3ccc(Cl)cc3)c(C#N)c2=O)cc1
[1]
  TGI: 51.1 µM
[2]
  TGI: 65.3 µM
[3]
  TGI: 31.7 µM
[4]
  TGI: 52.2 µM
[5]
  TGI: 89.5 µM
[6]
  TGI: > 100 µM
[7]
  TGI: > 100 µM
[8]
  TGI: 37.4 µM
[9]
  TGI: 29.3 µM
[15]
  TGI: > 100 µM
[10]
  TGI: > 100 µM
[11]
  TGI: 55.1 µM

## CCCCCCNC(=O)c1cc(NCc2cc(OC)ccc2OC)ccc1O
[2]
  TGI: 33.9 µM
[3]
  TGI: 46 µM
[4]
  TGI: 32.9 µM
[5]
  TGI: 46.7 µM
[6]
  TGI: 44.8 µM
[7]
  TGI: 41.8 µM
[13]
  TGI: 64.9 µM
[14]
  TGI: 33.1 µM
[8]
  TGI: 35.6 µM
[9]
  TGI: 28.4 µM
[15]
  TGI: 53.7 µM
[10]
  TGI: > 100 µM
[11]
  TGI: 41.1 µM
[12]
  TGI: 53.1 µM

## COC(=O)c1cc(NC2OCC(OC(C)=O)C(OC(C)=O)C2OC(C)=O)nc(SC)c1C(=O)OC (stereo unspecified)
[2]
  TGI: > 100 µM
[3]
  TGI: > 100 µM
[4]
  TGI: > 100 µM
[5]
  TGI: > 100 µM
[6]
  TGI: > 100 µM
[7]
  TGI: > 100 µM
[14]
  TGI: > 100 µM
[8]
  TGI: > 100 µM
[9]
  TGI: > 100 µM
[15]
  TGI: > 100 µM
[10]
  TGI: > 100 µM
[11]
  TGI: > 100 µM
[12]
  TGI: > 100 µM

## COC(=O)c1cc(C)ccc1/C=C1\Cc2cc(C)c(C)cc2C1=O
[1]
  TGI: > 100 µM
[3]
  TGI: > 100 µM
[4]
  TGI: > 100 µM
[5]
  TGI: > 100 µM
[7]
  TGI: > 100 µM
[13]
  TGI: > 100 µM
[14]
  TGI: > 100 µM
[8]
  TGI: > 100 µM
[9]
  TGI: > 100 µM
[15]
  TGI: > 100 µM
[10]
  TGI: > 100 µM
[12]
  TGI: > 100 µM

## CCOC(=O)C1C(=O)CC(C)(O)C(C(=O)OCC)C1c1ccc(N(C)C)cc1 (stereo unspecified)
[1]
  TGI: > 100 µM
[2]
  TGI: > 100 µM
[3]
  TGI: > 100 µM
[4]
  TGI: > 100 µM
[5]
  TGI: > 100 µM
[6]
  TGI: > 100 µM
[13]
  TGI: > 100 µM
[14]
  TGI: > 100 µM
[9]
  TGI: > 100 µM
[15]
  TGI: > 100 µM
[10]
  TGI: > 100 µM
[11]
  TGI: > 100 µM
[12]
  TGI: > 100 µM

## CC(=O)c1ccc(-c2oc(-c3ccccc3)cc2-c2ccc3c(c2)OCO3)s1
[1]
  TGI: > 100 µM
[2]
  TGI: > 100 µM
[3]
  TGI: 2.36 µM
[6]
  TGI: 6.08 µM
[13]
  TGI: > 100 µM
[8]
  TGI: > 100 µM
[9]
  TGI: > 100 µM
[15]
  TGI: > 100 µM
[11]
  TGI: > 100 µM
[12]
  TGI: > 100 µM

## CC(C)(C)CN1[C@@H]2CCCC[C@H]2N(CC(C)(C)C)P1(=O)Cc1ccccc1
[2]
  TGI: 22.2 µM
[3]
  TGI: 26.4 µM
[4]
  TGI: 29.6 µM
[5]
  TGI: 24.9 µM
[6]
  TGI: 32.7 µM
[7]
  TGI: 28.4 µM
[13]
  TGI: 29.7 µM
[14]
  TGI: 20.6 µM
[9]
  TGI: 24.8 µM
[15]
  TGI: 30.1 µM
[10]
  TGI: 28.6 µM
[11]
  TGI: 26.5 µM
[12]
  TGI: 26.1 µM

## CC1CC(N)=Nc2ccccc2N1Cc1ccccc1 (stereo unspecified)
[1]
  TGI: 23.3 µM
[2]
  TGI: 28.1 µM
[3]
  TGI: 19.5 µM
[5]
  TGI: 27.4 µM
[6]
  TGI: 26.8 µM
[7]
  TGI: 39.6 µM
[13]
  TGI: 30.9 µM
[14]
  TGI: 25.3 µM
[8]
  TGI: 17.2 µM
[9]
  TGI: 27.8 µM
[15]
  TGI: 30.2 µM
[10]
  TGI: 30.9 µM
[11]
  TGI: 28.4 µM
[12]
  TGI: 42.3 µM

## COc1ccc(-c2oc3c(CC(=O)O)cccc3c(=O)c2OC)cc1
[1]
  TGI: > 100 µM
[2]
  TGI: > 100 µM
[3]
  TGI: > 100 µM
[5]
  TGI: > 100 µM
[6]
  TGI: > 100 µM
[7]
  TGI: > 100 µM
[13]
  TGI: > 100 µM
[14]
  TGI: > 100 µM
[9]
  TGI: > 100 µM
[15]
  TGI: > 100 µM
[11]
  TGI: > 100 µM
[12]
  TGI: 53.4 µM

## CN1C(=O)n2c(nc3ccccc32)C(N=[N+]=[N-])(N=[N+]=[N-])C1=O (stereo unspecified)
[1]
  TGI: > 100 µM
[2]
  TGI: > 100 µM
[3]
  TGI: > 100 µM
[4]
  TGI: > 100 µM
[13]
  TGI: > 100 µM
[14]
  TGI: > 100 µM
[8]
  TGI: > 100 µM
[9]
  TGI: > 100 µM
[10]
  TGI: > 100 µM
[11]
  TGI: > 100 µM
[12]
  TGI: > 100 µM

## CN(C(=O)OC(C)(C)C)[C@H]1CCCC[C@H]1N1CCCC1
[1]
  TGI: > 100 µM
[2]
  TGI: > 100 µM
[3]
  TGI: > 100 µM
[4]
  TGI: > 100 µM
[5]
  TGI: > 100 µM
[6]
  TGI: > 100 µM
[13]
  TGI: > 100 µM
[14]
  TGI: > 100 µM
[8]
  TGI: > 100 µM
[9]
  TGI: > 100 µM
[15]
  TGI: > 100 µM
[10]
  TGI: > 100 µM
[11]
  TGI: > 100 µM
[12]
  TGI: > 100 µM
